Key:
TEC = biological target: T1, TEC (Homo sapiens, UniProt P42680); assay: Inhibition of a panel of kinases, in vitro HotSpot kinase assay: TEC; type: biochemical
T1 sequence (P42680 1-631): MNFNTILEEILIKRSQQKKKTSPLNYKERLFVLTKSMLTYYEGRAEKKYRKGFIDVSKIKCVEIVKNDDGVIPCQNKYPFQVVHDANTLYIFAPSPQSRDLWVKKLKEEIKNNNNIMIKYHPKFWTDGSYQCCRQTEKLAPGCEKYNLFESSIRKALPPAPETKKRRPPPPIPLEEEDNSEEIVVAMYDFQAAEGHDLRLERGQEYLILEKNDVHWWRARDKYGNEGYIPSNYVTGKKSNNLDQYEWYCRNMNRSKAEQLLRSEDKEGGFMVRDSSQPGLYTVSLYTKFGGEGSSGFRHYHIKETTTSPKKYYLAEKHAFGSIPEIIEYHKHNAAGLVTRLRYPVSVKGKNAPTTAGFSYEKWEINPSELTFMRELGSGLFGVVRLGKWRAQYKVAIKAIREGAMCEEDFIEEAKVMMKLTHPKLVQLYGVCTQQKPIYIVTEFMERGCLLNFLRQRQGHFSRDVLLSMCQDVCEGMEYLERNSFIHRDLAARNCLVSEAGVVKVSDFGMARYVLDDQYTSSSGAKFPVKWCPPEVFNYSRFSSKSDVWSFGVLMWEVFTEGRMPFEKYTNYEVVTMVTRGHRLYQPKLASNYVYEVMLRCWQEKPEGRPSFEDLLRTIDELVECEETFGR
Procedure: (§1) The degree of inhibition of a panel of kinases is determined using the in vitro HotSpot kinase assay (purified enzymes, ^33P-ATP, an appropriate substrate and 1 μM ATP).

ITK = biological target: T2, ITK (Homo sapiens, UniProt Q08881); assay: Inhibition of a panel of kinases, in vitro HotSpot kinase assay: ITK; type: biochemical
T2 sequence (Q08881 1-620): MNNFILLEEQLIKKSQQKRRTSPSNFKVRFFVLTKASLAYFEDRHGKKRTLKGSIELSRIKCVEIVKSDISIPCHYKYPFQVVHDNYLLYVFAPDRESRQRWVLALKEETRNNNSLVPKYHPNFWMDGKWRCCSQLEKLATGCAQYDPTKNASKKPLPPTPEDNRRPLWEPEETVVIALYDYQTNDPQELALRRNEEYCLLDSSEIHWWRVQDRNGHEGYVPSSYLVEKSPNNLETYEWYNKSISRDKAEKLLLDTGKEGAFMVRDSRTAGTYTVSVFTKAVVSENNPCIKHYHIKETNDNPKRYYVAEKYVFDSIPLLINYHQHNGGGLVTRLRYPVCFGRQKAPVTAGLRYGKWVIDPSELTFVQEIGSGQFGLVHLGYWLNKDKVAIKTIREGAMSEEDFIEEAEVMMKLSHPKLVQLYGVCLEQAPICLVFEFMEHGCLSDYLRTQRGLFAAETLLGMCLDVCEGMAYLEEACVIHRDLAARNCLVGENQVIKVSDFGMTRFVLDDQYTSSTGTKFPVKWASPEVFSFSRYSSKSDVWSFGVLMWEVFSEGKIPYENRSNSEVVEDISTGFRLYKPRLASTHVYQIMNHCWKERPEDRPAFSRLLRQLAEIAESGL
Procedure: as §1

[1] = Table 13, A compounds, 1 μM ATP

| Compound | IC50 (TEC; [1]) | IC50 (ITK; [1]) | IC50 (TEC; E compounds, Table 17) | IC50 (ITK; E compounds, Table 17) |
| --- | --- | --- | --- | --- |
| C[C@@H]1[C@H](NC(=O)c2ccc(C3CC3)nc2)CCCN1c1cnc(C(N)=O)c(Nc2cnn(C)c2)n1 [Example A-190, 5-((2R,3R)-3-(6-cyclopropylnicotinamido)-2-methylpiperidin-1-yl)-3-(1-methyl-1H-pyrazol-4-ylamino)pyr-azine-2-carboxamide] | 10 to 100 nM | 100 to 1000 nM | – | – |
| C=CC(=O)N[C@@H]1CCCN(c2nnc(C(N)=O)c(Nc3ccc(C4(C)CCN(C5CC5)CC4)cc3)n2)[C@@H]1C [Example E-2, 3-((2R,3R)-3-acrylamido-2-methylpiperidin-1-yl)-5-((4-(1-cyclopropyl-4-methylpiperidin-4-yl)phenyl)amino)-1,2,4-triazine-6-carboxamide] | – | – | ≤ 10 nM | 10 to 100 nM |
| C=CC(=O)N[C@@H]1CCCN(c2nnc(C(N)=O)c(Nc3ccc(Cl)cc3)n2)[C@@H]1C [Example E-5, 3-((2R,3R)-3-acrylamido-2-methylpiperidin-1-yl)-5-((4-chlorophenyl)amino)-1,2,4-triazine-6-carboxamide] | – | – | ≤ 10 nM | 10 to 100 nM |
| C=CC(=O)N1CCC[C@@H](Nc2nnc(C(N)=O)c(Nc3ccc(Cl)cc3)n2)[C@H]1C [Example E-7, 3-(((2R,3R)-1-acryloyl-2-methylpiperidin-3-yl)amino)-5-((4-chlorophenyl)amino)-1,2,4-triazine-6-carboxamide] | – | – | ≤ 10 nM | ≤ 10 nM |
| Cc1cc(Nc2nc(N3CC[C@H](O)[C@@H](N4CCC[C@@H](Nc5cc(Cl)cc(C(F)(F)F)c5)C4=O)C3)nnc2C(N)=O)sn1 [Example E-10, 3-((3R,3'S,4'S)-3-(3-chloro-5-(trifluoromethyl)phenylamino)-4′-hydroxy-2-oxo-1,3′-bipiperidin-1-yl)-5-(3-methylisothiazol-5-ylamino)-1,2,4-triazine-6-carboxamide] | – | – | 10 to 100 nM | ≤ 10 nM |
| C=CC(=O)N1CCC[C@@H](Nc2nnc(C(N)=O)c(Nc3cc(C)ns3)n2)C1 [Example E-11, (R)-3-(1-acryloylpiperidin-3-ylamino)-5-(3-methylisothiazol-5-ylamino)-1,2,4-triazine-6-carboxamide] | – | – | ≤ 10 nM | ≤ 10 nM |
| C=CC(=O)N1CC[C@@H](N(C)c2nnc(C(N)=O)c(Nc3cc(C)ns3)n2)C1 [Example E-12, (R)-3-((1-acryloylpyrrolidin-3-yl)(methyl)amino)-5-(3-methylisothiazol-5-ylamino)-1,2,4-triazine-6-carboxamide] | – | – | ≤ 10 nM | ≤ 10 nM |
| C=CC(=O)N1CCC[C@@H](Nc2nnc(C(N)=O)c(Nc3ccc(C(C)(C)C)cc3)n2)C1 [Example E-24, (R)-3-(1-acryloylpiperidin-3-ylamino)-5-(4-tert-butylphenylamino)-1,2,4-triazine-6-carboxamide] | – | – | ≤ 10 nM | ≤ 10 nM |
| C=CC(=O)N1CC[C@@H](N(C)c2nnc(C(N)=O)c(Nc3ccc(C(C)C)cc3)n2)C1 [Example E-26, (R)-3-((1-acryloylpyrrolidin-3-yl)(methyl)amino)-5-(4-isopropylphenylamino)-1,2,4-triazine-6-carboxamide] | – | – | ≤ 10 nM | ≤ 10 nM |
| C=CC(=O)N1CCC[C@@H](Nc2nnc(C(N)=O)c(Nc3ccc(-c4ncco4)cc3)n2)C1 [Example E-40, (R)-3-(1-acryloylpiperidin-3-ylamino)-5-(4-(oxazol-2-yl)phenylamino)-1,2,4-triazine-6-carboxamide] | – | – | ≤ 10 nM | 10 to 100 nM |
| C=CC(=O)N1CCC[C@@H](Nc2nnc(C(N)=O)c(Nc3ccc(-c4ncccn4)cc3)n2)C1 [Example E-41, (R)-3-(1-acryloylpiperidin-3-ylamino)-5-(4-(pyrimidin-2-yl)phenylamino)-1,2,4-triazine-6-carboxamide] | – | – | ≤ 10 nM | 10 to 100 nM |
| C=CC(=O)N1CCC[C@@H](Nc2nnc(C(N)=O)c(Nc3ccc(C4CCN(C(=O)CC)CC4)cc3)n2)C1 [Example E-45, (R)-3-(1-acryloylpiperidin-3-ylamino)-5-(4-(1-propionylpiperidin-4-yl)phenylamino)-1,2,4-triazine-6-carboxamide] | – | – | ≤ 10 nM | ≤ 10 nM |
| C=CC(=O)N[C@@H]1CCCN(c2cnc(C(N)=O)c(Nc3ccc(C4CCN(C5CC5)CC4)cc3)n2)[C@@H]1C [Example E-93, 5-((2R,3R)-3-acrylamido-2-methylpiperidin-1-yl)-3-(4-(1-cyclopropylpiperidin-4-yl)phenylamino)pyrazine-2-carboxamide] | – | – | ≤ 10 nM | 10 to 100 nM |
| C=CC(=O)N[C@@H]1CCCN(c2cnc(C(N)=O)c(Nc3cc(C)ns3)n2)[C@@H]1C [Example E-97, 5-((2R,3R)-3-acrylamido-2-methylpiperidin-1-yl)-3-(3-methylisothiazol-5-ylamino)pyrazine-2-carboxamide] | – | – | ≤ 10 nM | 10 to 100 nM |
| C=CC(=O)N1CCC[C@@H](N(C)c2cnc(C(N)=O)c(Nc3ccc(C(C)C)cc3)n2)C1 [Example E-102, (R)-5-((1-acryloylpiperidin-3-yl)(methyl)amino)-3-(4-isopropylphenylamino) pyrazine-2-carboxamide] | – | – | ≤ 10 nM | 10 to 100 nM |
| C=CC(=O)N1CCC[C@@H](N(C)c2cnc(C(N)=O)c(Nc3ccc(C4(C)CCN(C5CCCC5)CC4)cc3)n2)C1 [Example E-103, (R)-5-((1-acryloylpiperidin-3-yl)(methyl)amino)-3-(4-(1-cyclopentyl-4-methylpiperidin-4-yl)phenylamino)pyrazine-2-carboxamide] | – | – | ≤ 10 nM | ≤ 10 nM |
| C=CC(=O)N1CC[C@@H](N(C)c2cnc(C(N)=O)c(Nc3ccc(C4CCN(C5CCCC5)CC4)cc3)n2)C1 [Example E-109, (R)-5-((1-acryloylpyrrolidin-3-yl)(methyl)amino)-3-(4-(1-cyclopentylpiperidin-4-yl)phenylamino)pyrazine-2-carboxamide] | – | – | ≤ 10 nM | ≤ 10 nM |
| C=CC(=O)N1CC[C@@H](N(C)c2cnc(C(N)=O)c(Nc3cnn(CCOC)c3)n2)C1 [Example E-110, (R)-5-((1-acryloylpyrrolidin-3-yl)(methyl)amino)-3-(1-(2-methoxyethyl)-1H-pyrazol-4-ylamino)pyrazine-2-carboxamide] | – | – | ≤ 10 nM | ≤ 10 nM |
| C=CC(=O)N1CC[C@@H](N(C)c2cnc(C(N)=O)c(Nc3ccc(C4CCN(C5CC5)CC4)cc3)n2)C1 [Example E-121, (R)-5-((1-acryloylpyrrolidin-3-yl)(methyl)amino)-3-(4-(1-cyclopropylpiperidin-4-yl)phenylamino)pyrazine-2-carboxamide] | – | – | ≤ 10 nM | ≤ 10 nM |
| C=CC(=O)N1CCC[C@@H](N(C)c2cnc(C(N)=O)c(Nc3ccc(C4CCN(C5CCCC5)CC4)cc3)n2)C1 [Example E-125, (R)-5-((1-acryloylpiperidin-3-yl)(methyl)amino)-3-(4-(1-cyclopentylpiperidin-4-yl)phenylamino)pyrazine-2-carboxamide] | – | – | ≤ 10 nM | ≤ 10 nM |
| C=CC(=O)N1CCC[C@@H](Nc2nnc(C(N)=O)c(Nc3ccc(C4(C)CCN(C5CC5)CC4)cc3)n2)[C@H]1C [Example E-127, 3-(((2R,3R)-1-acryloyl-2-methylpiperidin-3-yl)amino)-5-((4-(1-cyclopropyl-4-methylpiperidin-4-yl)phenyl)amino)-1,2,4-triazine-6-carboxamide] | – | – | ≤ 10 nM | ≤ 10 nM |
| CC(C)c1ccc(Nc2nc(N3CCC[C@@H](N4CCC[C@@H](Nc5cc(Cl)cc(C(F)(F)F)c5)C4=O)C3)nnc2C(N)=O)cc1 [Example E-128, 3-((3R,3′R)-3-((3-chloro-5-(trifluoromethyl)phenyl)amino)-2-oxo-[1,3′-bipiperidin]-1′-yl)-5-((4-isopropylphenyl)amino)-1,2,4-triazine-6-carboxamide] | – | – | 1000 to 10000 nM | 10 to 100 nM |
| C[C@@H]1[C@H](NC(=O)c2ccc(C3CC3)cc2)CCCN1c1cnc(C(N)=O)c(Nc2ccc(OC3CCN(C)C3)cc2)n1 (stereo partly drawn) [Example E-136, 5-((2R,3R)-3-(4-cyclopropylbenzamido)-2-methylpiperidin-1-yl)-3-((4-((1-methylpyrrolidin-3-yl)oxy)phenyl)amino) pyrazine-2-carboxamide] | – | – | ≤ 10 nM | 10 to 100 nM |

From patent US20210070748A1, “INHIBITORS OF BRUTONS TYROSINE KINASE” (Pharmacyclics LLC, priority 2015, published 2021)
